Assay results published in patent publication US9776962B2, “Aromatic compounds with GPR40 agonistic activity” (TAKEDA PHARMACEUTICAL COMPANY LIMITED, priority 2013, dated 2017).

Target: T1, human GPR40 (Homo sapiens, UniProt O14842)
T1 construct: expressed in transfected cells
Assay: Evaluation of human GPR40 agonist activity with increase in intracellular Ca2+ concentration as an index (FLIPR)
Format: cell-based
Conditions: test compound 1 μM; CHO(dhfr−) cells stably expressing human GPR40; 100% = 10 μM compound of Example 153, 0% = DMSO
Outline: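 CHO(dhfr−) cells stably expressing full-length human GPR40 were loaded with Ca2+ probe for 1 h at room temperature, then given test compound at 1 μM final. Fluorescence was followed on FLIPR, with activity scaled to a reference agonist at 10 μM (100%) and DMSO (0%).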

T1 sequence (O14842 whole entry): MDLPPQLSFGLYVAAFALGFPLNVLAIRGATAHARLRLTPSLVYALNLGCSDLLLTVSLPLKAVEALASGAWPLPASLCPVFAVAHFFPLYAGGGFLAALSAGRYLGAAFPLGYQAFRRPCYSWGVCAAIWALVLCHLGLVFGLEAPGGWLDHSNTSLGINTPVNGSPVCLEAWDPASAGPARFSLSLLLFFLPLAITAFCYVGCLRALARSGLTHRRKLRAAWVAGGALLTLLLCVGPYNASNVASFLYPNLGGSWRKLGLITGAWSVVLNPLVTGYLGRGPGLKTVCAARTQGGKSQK

| Structure (SMILES) | activation at 1 µM |
| --- | --- |
| COc1ccc(C(=O)N(Cc2ccccn2)CC(C)(C)C)c(N2CCC(COc3cc(C(CC(=O)O)C4CC4)ccn3)CC2)c1 (stereo not shown) [Example 181, 3-cyclopropyl-3-(2-((1-(2-((2,2-dimethylpropyl)(pyridin-2-ylmethyl)carbamoyl)-5-methoxyphenyl)piperidin-4-yl)methoxy)pyridin-4-yl)propanoic acid] | 91% |
| COc1ccc(C(=O)N(CC(F)(F)F)c2cncc(C(F)(F)F)c2)c(N2CCC(COc3cc(C(CC(=O)O)C4CC4)ccn3)CC2)c1 (stereo not shown) [Example 236, 3-cyclopropyl-3-(2-((1-(5-methoxy-2-((2,2,2-trifluoroethyl) (5-(trifluoromethyl)pyridin-3-yl)carbamoyl)-phenyl)piperidin-4-yl)methoxy)pyridin-4-yl)propanoic acid] | 91% |
| COc1ccc(C(=O)N2C[C@@H](C)O[C@@H](C)C2)c(N2CCC(COc3cccc(C(CC(=O)O)C4CC4)c3)CC2)c1 (stereo partly drawn) [Example 5, 3-cyclopropyl-3-(3-((1-(2-((cis-2,6-dimethylmorpholin-4-yl)carbonyl)-5-methoxyphenyl)piperidin-4-yl)methoxy)phenyl)propanoic acid] | 85% |
| COc1cc(N2CCC(COc3cc(C(CC(=O)O)C4CC4)ccn3)CC2)c(C(=O)N(CC(C)(C)C)c2cc(C)cc(C)n2)cn1 (stereo not shown) [Example 284, 3-cyclopropyl-3-(2-((1-(5-((2,2-dimethylpropyl) (4,6-dimethylpyridin-2-yl)-carbamoyl)-2-methoxypyridin-4-yl)-piperidin-4-yl)-methoxy)pyridin-4-yl)propanoic acid] | 103% |
| COc1ccc(C(=O)N(CC(C)C)c2cc(C)ccn2)c(N2CCC(COc3cc(C(CC(=O)O)C4CC4)ccn3)CC2)c1 (stereo not shown) [Example 123, 3-cyclopropyl-3-(2-((1-(5-methoxy-2-((2-methylpropyl)(4-methylpyridin-2-yl)carbamoyl)phenyl)piperidin-4-yl)methoxy)pyridin-4-yl)propanoic acid] | 99% |
| COc1ccc(C(=O)N(CC(C)(C)C)c2cccc(C)n2)c(N2CCC(COc3cccc(C(C)(C)CC(=O)O)c3)CC2)c1 [Example 277, 3-(3-((1-(2-((2,2-dimethylpropyl) (6-methylpyridin-2-yl)carbamoyl)-5-methoxyphenyl)piperidin-4-yl)methoxy)phenyl)-3-methylbutanoic acid] | 110% |
| COc1ccc(C(=O)N(CC(C)(C)C)c2cccc(C)n2)c(N2CCC(COc3cccc(C(CC(=O)O)OC)c3)CC2)c1 (stereo not shown) [Example 269, 3-(3-((1-(2-((2,2-dimethylpropyl)(6-methylpyridin-2-yl)carbamoyl)-5-methoxyphenyl)piperidin-4-yl)methoxy)phenyl)-3-methoxypropanoic acid] | 103% |
| COc1ccc(C(=O)N(CC(C)(C)O)c2ccccn2)c(N2CCC(COc3cc(C(CC(=O)O)C4CC4)ccn3)CC2)c1 (stereo not shown) [Example 119, 3-cyclopropyl-3-(2-((1-(2-((2-hydroxy-2-methylpropyl)(pyridin-2-yl)carbamoyl)-5-methoxyphenyl)piperidin-4-yl)methoxy)pyridin-4-yl)propanoic acid] | 52% |
| Cc1cccc(N(CC(C)(C)C)C(=O)c2ccc(O)cc2N2CCC(COc3cc(C(CC(=O)O)C4CC4)ccn3)CC2)n1 (stereo not shown) [Example 259, 3-cyclopropyl-3-(2-((1-(2-((2,2-dimethylpropyl)(6-methylpyridin-2-yl)carbamoyl)-5-hydroxyphenyl)piperidin-4-yl)methoxy)pyridin-4-yl)propanoic acid] | 77% |
| COc1ccc(C(=O)N(CC(C)(C)OC)c2ccccc2)c(N2CCC(COc3cc(C(CC(=O)O)C4CC4)ccn3)CC2)c1 (stereo not shown) [Example 188, 3-cyclopropyl-3-(2-((1-(5-methoxy-2-((2-methoxy-2-methylpropyl)(phenyl)carbamoyl)phenyl)piperidin-4-yl)methoxy)pyridin-4-yl)propanoic acid] | 95% |
